# Values of other authors in patent US20260102357A1, “Sulfur-Containing Ionizable Lipids for the Delivery of Therapeutic Agents” (NanoVation Therapeutics Inc., priority 2022, published 2026).
# Conditions: delivery of siRNA; fold less siRNA than KC2
compound,measurement,value
"CCCCC/C=C\C/C=C\CCCCCCCCC(CCCCCCCC/C=C\C/C=C\CCCCC)OC(=O)CCCN(C)C [MC3, DLin-MC3-DMA]",siRNA required relative to KC2,about 3 times less
